Data published in patent US20090047742A1 (priority 2005, published 2009).

What was measured:
[1] = test system: 28S and 18S ribosomal RNA; assay: ribosomal RNA by agarose-formaldehyde gel electrophoresis and ethidium bromide staining; assay type: cell-based, human; conditions: MazF expressed for 72 hours, T-Rex-293 cells
Description: Total RNA from Tet-treated or -untreated T-Rex-293 cells at the indicated time points was probed with ^32P-labeled human GAPDH and β-actin cDNA. 28S and 18S ribosomal RNAs were visualized by agarose-formaldehyde gel electrophoresis followed by ethidium bromide staining. […] Human GAPDH and β-actin mRNA levels were quantified by real-time RT-PCR. Relative amounts of mRNA were calculated from the fluorescence signal in the 24-, 48- and 72-hours samples as compared with the corresponding 0-hour sample.

[2] = test system: activated caspase-3 in iBMK cells; assay: immunofluorescence of activated caspase-3 in iBMK cells; assay type: cell-based, mouse
Description: W2, D3, X2 and K1 cells co-transfected by electroporation with a combination of plasmids pcDNA6/His/lacZ with pcDNA4/TO/mazF or pcDNA3 were grown on glass coverslips for 24 hr and fixed in 100% methanol for 10 min at −20° C. After blocking in 1% BSA-PBS for 1 hr at 37° C., cells on coverslips were incubated with anti-active caspase-3 rabbit polyclonal antibody and anti-Xpress mouse monoclonal antibody (Invitrogen, Carlsbad, Calif.) for 1 hr at 37° C. followed by incubation with rhodamine-conjugated anti-rabbit IgG and FITC-conjugated anti-mouse IgG antibody for 1 hr at 37° C. Staining was visualized by a Nikon FXA microscope equipped with epifluorescence optics (Nikon Inc., Garden City, N.Y.). The percentage of cells positive for active caspase-3 was determined by scoring 50-100 cells on each coverslip.

BCL-2 family proteins = assay: Western blot of BCL-2 family proteins in T-Rex-293 lysates; assay type: cell-based, human
Description: Western blot analysis and immunofluorescence were performed as previously described (Perez, D., and White, E. J. Cell Biol. 141: 1255-1266 (1998); Perez, D., and White, E. Mol. Cell 6: 53-63 (2000)). The term “Western blot” refers to a method for identifying proteins in a complex mixture; proteins are separated electrophoretically in a gel medium; transferred from the gel to a protein binding sheet or membrane; and the sheet or membrane containing the separated proteins exposed to specific antibodies which bind to, locate, and enable visualization of protein(s) of interest. T-Rex-293 (mazF/pcDNA3) and T-Rex-293 (mazF/mazE) cells were harvested at 0, 24, 48 and 72 hr post-treatment with tetracycline or staurosporine by scraping and centrifugation. All cell pellets were lysed in 2× Laemmli buffer. Cell lysates were subjected to electrophoresis on a 15% SDS-PAGE gel and then transferred onto an Immobilon-P membrane (Millipore, Bedford, Mass.). […]

caspase-3, PARP = assay: Western blot of active caspase-3 and PARP in T-Rex-293 lysates; assay type: cell-based, human
Description: Western blot analysis and immunofluorescence were performed as previously described (Perez, D., and White, E. J. Cell Biol. 141: 1255-1266 (1998); Perez, D., and White, E. Mol. Cell 6: 53-63 (2000)). The term “Western blot” refers to a method for identifying proteins in a complex mixture; proteins are separated electrophoretically in a gel medium; transferred from the gel to a protein binding sheet or membrane; and the sheet or membrane containing the separated proteins exposed to specific antibodies which bind to, locate, and enable visualization of protein(s) of interest. T-Rex-293 (mazF/pcDNA3) and T-Rex-293 (mazF/mazE) cells were harvested at 0, 24, 48 and 72 hr post-treatment with tetracycline or staurosporine by scraping and centrifugation. All cell pellets were lysed in 2× Laemmli buffer. Cell lysates were subjected to electrophoresis on a 15% SDS-PAGE gel and then transferred onto an Immobilon-P membrane (Millipore, Bedford, Mass.). The blot was incubated with following antibody: anti-active caspase-3 rabbit polyclonal antibody (Cell Signaling Technology, Beverly, Mass.), anti-BAX, anti-BAK rabbit polyclonal antibody (NT) (Upstate Biotechnology Inc., Lake Placid, N.Y.), anti-BID goat polyclonal antibody (R&D Systems, Inc, Minneapolis, Minn.), anti-Bim rabbit polyclonal antibody (Alexis Biochemical, San Diego, Calif.), anti-BCL-2 hamster monoclonal antibody (PharMingen, San Diego, Calif.), anti-BCL-XL mouse monoclonal antibody (Trevigen, Gaithersburg, Md.), anti-MCL-1 rabbit polyclonal antibody (Stressgen Biotechnologies, Victoria, British Columbia, Canada), anti-PARP mouse monoclonal antibody (PharMingen, San Diego, Calif.), anti-PUMA rabbit polyclonal antibody (Nelson, D. A., et al., Genes Dev. 18: 2095-2107 (2004)), anti-E1A monoclonal antibody; anti-actin monoclonal antibody (Oncogene Research Products); and anti-Xpress monoclonal antibody (Invitrogen). An antibody directed to human NBK/BIK was generated by expression of a GST-tagged human NBK/BIK fusion protein encoding an N-terminal 78-amino acid region in bacteria and immunization of rabbits (Cocalico). Western Blots were developed with horseradish peroxidase-conjugated secondary antibodies using the ECL system (Amersham-Pharmacia Biotech, Piscataway, N.J.).

T-Rex-293 cells [3] = assay: 35S-methionine metabolic labeling (protein synthesis); assay type: cell-based, human
Description: T-Rex-293 (mazF/pcDNA3) and T-Rex-293 (mazF/mazE) cells were incubated for 0, 24 and 48 hr in tetracycline-containing complete DMEM followed by incubation for 1 hr in fresh methionine-free DMEM containing 10 μCi/ml ^35S-methionine. The cells then were washed with PBS twice and lysed in 2× Laemmli buffer. The cell lysate was subjected to SDS-PAGE followed by autoradiography and coomassie blue stain. Signal intensity was measured by Phosphoimager STORM 860 (Molecular Dynamics, Sunnyvale, Calif.).

T-Rex-293 cells [4] = assay: FACS analysis of propidium iodide labeling (sub-G1 peak); assay type: cell-based, human; conditions: T-Rex-293 (mazF/pcDNA3), 72 hours of Tet induction
Description: T-Rex-293 (mazF/pcDNA3) cells and T-Rex-293 (mazF/mazE) cells treated with tetracycline for 0, 24, 48 and 72 hr were harvested by trypsinization, pelleted by centrifugation and resuspended in PBS. The cells were fixed with ice-cold 70% ethanol for 30 min and stained with propidium iodide (10 μg/ml) and RNase A (100 μg/ml) overnight. The cells were analyzed on a Becton Dickinson FACSCalibur system (San Jose, Calif.).

Which “levels of 28S and 18S ribosomal RNA” value [1] does the source give for “MazF: E. coli toxin; sequence specific endoribonuclease (mRNA interferase) cleaving single-stranded RNAs at ACA sequences; expressed from plasmid pcDNA4/TO/mazF” here?
Its value is “did not change”.

And the “cells with activated caspase-3” value ([2]; D3 and K1 cells transiently expressing MazF)?
The value was less than 0.1%.

What about the active-caspase-3 positive cells ([2]; W2 cells transiently expressing MazF) of the same substance?
Its active-caspase-3 positive cells is 58.1%.

And the active-caspase-3 positive cells ([2]; X2 cells transiently expressing MazF)?
Its active-caspase-3 positive cells is 47.2%.

And the “levels of BCL-2 family proteins (Western blot)” value (BCL-2 family proteins; T-Rex-293, MazF induction 0-72 hours)?
Its value is “remained unchanged”.

What about the “truncated BID (tBID) (Western blot)” value (BCL-2 family proteins; T-Rex-293, during MazF-induced apoptosis) of the same substance?
Its value is “undetectable”.

What about the “cleaved PARP (Western blot)” value (caspase-3, PARP; T-Rex-293 (mazF/pcDNA3) treated with Tet for 48 hours) of the same substance?
Its value is “detected”.

And the “cleaved PARP levels (Western blot)” value (caspase-3, PARP; T-Rex-293 (mazF/pcDNA3), 72 hours post-induction of MazF)?
The value was “further increased”.

What about the “processed active caspase-3 (Western blot)” value (caspase-3, PARP; extracts from T-Rex-293 (mazF/pcDNA3) cells treated with Tet) of the same substance?
Its value is “presence of the processed active form of caspase-3”.

What about the “total protein levels (Coomassie blue)” value (T-Rex-293 cells [3]; MazF expressing T-Rex-293 cells, over the 48 hour induction period) of the same substance?
Its value is “remain constant”.

What about the “protein synthesis (35S-methionine incorporation)” value (T-Rex-293 cells [3]; T-Rex-293 (mazF/pcDNA3), 24 hours post induction of MazF) of the same substance?
The value was “strikingly inhibited”.

What about the sub-G1 peak (T-Rex-293 cells [4]) of the same substance?
The sub-G1 peak was 65.9%.
